Measured values as given in paper PMC11502347 (Frontiers in Microbiology, 2024).

Legend:
[1] = test system: Mtb CF 184 (mono-resistant to isoniazid); format: cell-based, Mycobacterium tuberculosis; settings: Mono INH clinical isolate; REMA, 7 days
[2] = test system: Mtb CF 44 (mono-resistant to isoniazid); format: cell-based, Mycobacterium tuberculosis; settings: Mono INH clinical isolate; REMA, 7H9 + 10% OADC, 7 days

SMILES	CIM90 CF 184 [1]	CIM90 CF 44 [2]
CO[C@H]1/C=C/O[C@@]2(C)Oc3c(C)c(O)c4c(O)c(c(/C=N/N5CCN(C)CC5)c(O)c4c3C2=O)NC(=O)/C(C)=C\C=C\[C@H](C)[C@H](O)[C@@H](C)[C@@H](O)[C@@H](C)[C@H](OC(C)=O)[C@@H]1C [RFP, rifampicin]	0,05 ± 0,01 μM	0,05 ± 0,01 μM
NNC(=O)c1ccncc1 [INH, isoniazid]	> 182,30 μM	> 182,30 μM
NCC[C@H](O)C(=O)N[C@@H]1C[C@H](N)[C@@H](O[C@H]2O[C@H](CN)[C@@H](O)[C@H](O)[C@H]2O)[C@H](O)[C@H]1O[C@H]1O[C@H](CO)[C@@H](O)[C@H](N)[C@H]1O [AMK, amikacin]	0,24 ± 0,00 μM	1,48 ± 1,12 μM
O=C(Nc1ccc(N2CCN(c3ccccn3)CC2)c(F)c1)c1ccc2no[n+]([O-])c2c1 [Compound 5n]	0,96 ± 1,04 μM	4,71 ± 3,11 μM
O=C(Nc1ccc(N2CCSCC2)c(F)c1)c1ccc2no[n+]([O-])c2c1 [Compound 5b]	0,37 ± 0,15 μM	0,52 ± 0,09 μM
